Columns and labels:
monkey eye [1] = assay: IOP test after a single topical ocular instillation in monkeys (Example 1); type: in vivo, cynomolgus monkeys; conditions: 0.0005% solution, 35 μL/eye; for intraocular pressure lowering effect (in words): compared with vehicle-treated contralateral eye, Student's t-test
From the text: This Example is an IOP test using the monkey eye in which about one tenth the clinical dose of latanoprost is compared in IOP reduction with the same dose of 15-keto latanoprost.
The intraocular pressure lowering effects of the 0.0005% solution of 13,14-dihydro-15-keto-17-phenyl-18,19,20-trinor-PGF2α-isopropyl ester (15-keto-latanoprost) and the 0.0005% solution of 13,14-dihydro-17-phenyl-18,19,20-trinor-PGF2α-isopropyl ester (latanoprost) were compared following a single, topical ocular instillation in monkeys.
The solution containing 15-keto-latanoprost or latanoprost at 0.0005% was prepared with the following vehicle. Composition of the vehicle^1) (/mL): NaCl (4.1 mg), NaH2PO4—H2O (4.6 mg), Na2HPO4—2H2O (5.94 mg), Benzalkonium Chloride (0.2 mg) and water for injection
Five male cynomolgus monkeys purchased from Kasyo Co., Ltd. were used. These monkeys were housed individually in cages for monkeys in a room which was maintained at room temperature of 24±1° C., relative humidity of 55±10%, ventilation rate of about 12 times/hour and 12-hour light-dark cycle (fluorescent lighting: 8:00 a.m. to 8:00 p.m.). The animals were given food pellets for monkeys (PS, Oriental Yeast Co., Ltd.), vegetables and fruits, and allowed free access to tap water from an automatic dispenser. The healthy animals without abnormalities in the anterior segment of the eye were used in this study.
Five monkeys were divided into 2 groups of the group 1 (3 monkeys) and group 2 (2 monkeys). […]
The animals were systemically anesthetized by an intramuscular injection of 5 mg/kg of ketamine hydrochloride (Ketalar®50, Sankyo Co., Ltd.), and the anterior segment of both eyes was anesthetized by a instillation of 0.4% oxybuprocaine hydrochloride (Benoxil® 0.4% solution, Santen Pharmaceutical Co., Ltd.). The animals were fixed in a sitting position, and the intraocular pressure was measured by use of an applanation pneumatonograph (Alcon Japan Ltd.) before, and 2, 4, 8, 12 and 24 hours after the instillation. […]
The data were statistically analyzed with Student's t-test.

monkey eye [2] = assay: IOP after additional instillation 12 hours after instillation of 0.005% latanoprost in monkeys (Example 2); type: in vivo, cynomolgus monkeys; conditions: 30 μL; for effect on IOP of additional instillation, compared with 0.005% latanoprost alone: 0.0005% solution, instilled 12 hours after instillation of 0.005% latanoprost, IOP followed to 32 hours
From the text: This Example illustrates the employment of a low dose of 15-keto latanoprost for maintaining a low IOP level following single administration of another IOP reducing agent for obtaining a rapid drop in IOP.
The changes of IOP in 3 different treatment groups were compared to investigate the significance of the presence of 15-keto acid of latanoprost, a 13,14-dihydro-15-keto type metabolite, in maintaining the IOP lowering effect observed after instillation of latanoprost.
15-keto-latanoprost and latanoprost which were synthesized in Ueno Institute for Medical Science were used.
Six male cynomolgus monkeys (body weight: 3.2-3.8 kg) were used. These monkeys were housed individually in cages for monkeys in a monkey rearing room which was maintained at room temperature of 24±1° C., relative humidity of 55±10%, and ventilation of about 12 times/hour and a 12-hour light-dark cycle (fluorescent lighting: 8:00 a.m. to 8:00 p.m.). The animals were given solid food for monkeys (PS, Oriental Yeast Co., Ltd.), vegetables and fruits, and allowed free access to tap water from an automatic dispenser. The healthy animals without abnormalities in the anterior segment were used in this study.
0.0005% and 0.005% latanoprost eye drops and 0.0005% 15-keto-latanoprost eye drops were prepared with a vehicle consisting of the following composition. The composition of the vehicles in 1 mL was as follows: sodium chloride (4.1 mg), sodium hydrogenphosphate-1H2O (4.6 mg), disodium hydrogenphosphate-2H2O (5.94 mg), benzalkonium chloride (0.200 mg) and water for injection (1 mL).
In the present study, changes in IOP after instillation of 0.005% latanoprost alone at the clinical concentration were compared with those in IOP after additional instillation of 0.0005% latanoprost or 0.0005% 15-keto-latanoprost 12 hours after instillation of 0.005% latanoprost to investigate the significance of the presence of a 13,14-dihydro-15-keto type metabolite in maintaining the IOP lowering effect observed after instillation of latanoprost.
The following 3 treatments were given to the right eye of monkeys at the intervals of at least 10 days. […]
After the ocular surface of monkeys was anesthetized with 0.4% oxybuprocaine hydrochloride (Benoxil® 0.4% solution, Santen Pharmaceutical Co., Ltd.) under i.m. systemic anesthesia with 5-7.5 mg/kg of ketamine hydrochloride, IOP was measured with an applanation pneumatonograph (Alcon Japan Ltd.). IOP was measured before instillation and at 4, 8, 12, 16, 20, 24, 28 and 32 hours after instillation of 0.005% latanoprost.

[3] = Ocular side effects of topical application (stated, no method described); type: in vivo; conditions: 15-keto latanoprost at the dosages described herein
[4] = latanoprost at its clinical concentration; cited from earlier work
[5] = single instillation of 0.005% latanoprost (clinical concentration), right eye

| Structure (SMILES) | intraocular pressure lowered as compared with the pre-treatment value (monkey eye [1]; 8 hours after the instillation, n=5) [mmHg] | intraocular pressure lowering effect (in words) (monkey eye [1]) | effect on IOP of additional instillation, compared with 0.005% latanoprost alone (monkey eye [2]) | ocular side effects (iridic pigmentation, initial IOP spike, hyperemia) [3] | time at which intraocular pressure returned to the predosing level (monkey eye [2]; [5]) [h] | time of maximum reduction of intraocular pressure after instillation (monkey eye [2]; [5]) [h] | ocular side effects (iris pigmentation, IOP spike, hyperemia) [4] |
| --- | --- | --- | --- | --- | --- | --- | --- |
| CC(C)OC(=O)CCC/C=C\C[C@@H]1[C@@H](CCC(=O)CCc2ccccc2)[C@H](O)C[C@@H]1O [15-keto-latanoprost, 13,14-dihydro-15-keto-17-phenyl-18,19,20-trinor-PGF2α-isopropyl ester] | 2.4 | statistically significant | maintained at significantly low levels | does not cause iridic pigmentation, an initial IOP spike nor any hyperemia |  |  |  |
| CC(C)OC(=O)CCC/C=C\C[C@@H]1[C@@H](CC[C@@H](O)CCc2ccccc2)[C@H](O)C[C@@H]1O [latanoprost, 13,14-dihydro-17-phenyl-18,19,20-trinor-PGF2α-isopropyl ester] |  | did not lower the intraocular pressure | did not affect IOP |  | 24 | 12 | can cause pigmentation of the iris, a mild IOP spike and/or mild hyperemia |
